Laboratory results from patent US20100129910A1, “Cell matrix related compositions and their use for generating embryoid bodies” (priority 2008, published 2010).

Key:
hESC lines H1 and H9 = assay: hESC re-aggregation and EB formation, MEF-free modified spin EB method (Example 2); type: cell-based, human
Experimental: To generate MEF-free EBs, a modification of the “spin EB” method was used (8, 9). Colonies of H1 and H9 hESC (WiCell Inc) (passage 36-50) were cut into uniformed sized pieces using StemProEZPassage tool, transferred onto 6-well plates coated for 1 hour with Matrigel (growth factor reduced, no phenol red; BD Bioscience), and cultured in MEF-conditioned hESC media supplemented with 4 ng/ml FGF2. Pre-culture on Matrigel increases aggregation capacity of hESC (data not shown). After 24 hours, colonies were digested with Tryple Select into a single cell suspension, incubated with SSEA4 antibody, and SSEA4 positive cells sorted with FACS as described above. Before the sorting step 2-3% of the cells in suspension were represented by MEFs and 97-98% by hESC. After sorting, purity of hESC in the preparation was >99.9% as was measured with SSEA4 staining by FACS. These purified hESC were centrifuged at 1400 RPM and the resulting pellet was resuspended in previously described differentiation media, transferred into low attachment round-bottom 96 well culture plates (Nunc, Rochester, N.Y.) and centrifuged at 1400 RPM for 7 min with or without inducers of aggregation. To test the effects on cell aggregation, a mixture of ECMs in the form of Matrigel (5, 25, 100, 200, μg/ml) a solubilized basement membrane preparation extracted from the Engelbreth-Holm-Swarm (EHS) mouse sarcoma; murine laminin-111 and nidogen-1 complex (5, 25, 100, 200 μg/ml) from EHS sarcoma; or purified human collagen IV (1, 5, 25, 50 μg/ml) (all from BD Bioscience); human laminin-511 (1,5, 25, 50 μg/ml) (Sigma-Aldrich) and human nidogen-1 (1,5, 25, 50 μg/ml) (R&D systems) were added to the cell suspension prior to centrifugation. For directed differentiated of the EBs, differentiation media was supplemented with human vascular endothelial growth factor (VEGF), FGF2, bone morphogenic protein 4 (BMP4), or Wnt3a (all at 10 ng/ml; R&D systems) or FCS (Omega Scientific Inc. Tarzana, Calif.), prior to the final centrifugation step dependent upon experimental design.
Lower concentrations were not sufficient to aggregate all cells in the well. Higher concentrations of Matrigel increased viscosity and blocked efficient pellet formation during centrifugation.
To further dissect the mechanisms of hESC aggregation, the key ECM proteins were tested individually at a range of concentrations with regards to their capacity to assemble dispersed hESC into EBs. […] Thus, the presence of both laminin (either 111 or 511) and nidogen-1 was required for hESC aggregation.

hES cells = assay: ES cell aggregation under different conditions (EB formation by centrifugation, Example 1); type: cell-based, human; details: inducer at 0.1 mg/ml (each protein)
Text: Our investigations have shown that two elements when added to the hESC suspensions are sufficient to allow re-aggregation in the absence of MEF or other feeder cells. These two elements are the extracellular matrix proteins laminin and nidogen (Table 1 and FIG. 1A).
By adding human laminin and nidogen complex into suspensions of pure hES cells, cells or products of non-human origin can be completely avoided in the re-aggregation of hESC and the subsequent generation of EB. Laminin binds to the surface of hES cells through the specific receptor integrin α6 β1. […] Nidogen cross-links large molecules of laminin attached to the hES cell receptors into complex three-dimensional structures. When a laminin-nidogen mix is added to a hES cell suspension, highly viable EBs can be generated from as little as 100 hES cells (FIG. 1B).
Using our method, undifferentiated hES cells are prepared as a single cell suspension, plated (at the desired number of cells) into low attachment round bottom 96 well plates and then re-aggregated to form EBs using centrifugation in the presence of the laminin-nidogen complex. hEBs formed in this way have excellent viability, are of uniform size and contain all three germ layers (ectoderm, mesoderm and endoderm)—that can in turn be induced to generate more differentiated tissue. The simplicity of this method of hEB generation reduces the variability inherent in culture systems that require cellular components (such as MEFs) or other complex media. The simplicity of the system also facilitates the testing of variables that affect differentiation of hEB into different tissue types and improves the quantitation of any effects seen. This system may also be used for generation of chimeric EBs when different cell types (e.g., hES cells transduced with fluorescent tag can be mixed with non-transduced hES cells and re-aggregated into one EB with subsequent tracking of progenies arising from the labeled cells.

hESC = details: cited from earlier work
LN-EBs from hESC = assay: Germ layer differentiation of LN-EBs (immunohistochemistry for nestin, CD34, alpha-fetoprotein); type: cell-based, human
Experimental: FIG. 4: Generation of ectodermal, mesodermal and endodermal derivatives in the “LN-EB” system. “LN-EBs” were generated with the laminin-nidogen complex and in the presence of media designed for specific germ layer differentiation. A. For induction of ectodermal derivatives, serum-free media was supplemented with Wnt3a (10 ng/ml); B. Addition of BMP4, FGF2, VEGF (all 10 ng/ml) to serum-free medium induced formation of endodermal and mesodermal derivatives. C. Addition of 10% FCS, with no exogenous growth factors, induced synchronous generation of the all three germ layers. D. Standard EBs cultured in medium supplemented with 10% FCS. E. Control EBs cultured in serum-free media with no exogenous growth factors. F. No primary antibody control of immunostaining. Immunohistochemical detection of ectoderm, mesoderm and endoderm formation was assessed using antibodies for nestin (left column), CD34 (middle column) and alpha-fetoprotein (right column) respectively. Antigen expression is shown in brown color. Nuclei are stained with hematoxylin (blue). Magnification: 200×. […]
To generate MEF-free EBs, a modification of the “spin EB” method was used (8, 9). […] After sorting, purity of hESC in the preparation was >99.9% as was measured with SSEA4 staining by FACS. […]

[1] = added individually as single agents at a range of concentrations

With “human laminin-511: human laminin-α5β1γ1 heterotrimer (Sigma-Aldrich)” as the molecule, how does the hESC aggregation (hESC lines H1 and H9; [1]) read?
Its hESC aggregation is “minimal aggregation”.

For “murine laminin-111-nidogen-1 complex: murine laminin-111 and nidogen-1 complex from EHS sarcoma”, which hESC aggregation (hESC lines H1 and H9; 100-200 μg/ml, MEF-free single cell suspension, after centrifugation) is on record?
The hESC aggregation was “robust aggregation”.

For “Collagen IV: extracellular matrix protein collagen IV”, which Aggregation (hES cells) is on record?
The Aggregation was “−”.

Which “aggregation and EB formation of dissociated hESC” value (hESC; 10 μM) does the source give for `C[C@@H](N)[C@H]1CC[C@H](C(=O)Nc2ccncc2)CC1` [Y-27632] here?
The value was “aggregate and form EBs”.

What about the “survival of hESC after dissociation to single cells” value (hESC) of the same molecule?
The value was “promote the survival”.

For Fibronectin, which Aggregation (hES cells) is on record?
The Aggregation was “−”.

With “human laminin-511 complexed with human nidogen-1: ultrapure human laminin-511 complexed with human nidogen-1, ratio laminin to nidogen 9:1” as the molecule, how does the hESC aggregation (hESC lines H1 and H9; laminin-511 9-22.5 μg/ml with nidogen-1 1-2.5 μg/ml, ratio laminin to nidogen 9:1) read?
The hESC aggregation was “robust aggregation”.

With “human collagen-IV: purified human collagen IV (BD Bioscience) [reference compound]” as the molecule, how does the hESC aggregation (hESC lines H1 and H9; [1]) read?
Its hESC aggregation is “No aggregation”.

For Laminin, which Aggregation (hES cells) is on record?
Its Aggregation is “+ (+ means very little aggregation)”.

B1: nidogen-1: human nidogen-1 linker protein (R&D systems) (protein, UniProt P14543 29-1247, looked up)
Nidogen-1: LSRQELFPFGPGQGDLELEDGDDFVSPALELSGALRFYDRSDIDAVYVTTNGIIATSEPPAKESHPGLFPPTFGAVAPFLADLDTTDGLGKVYYREDLSPSITQRAAECVHRGFPEISFQPSSAVVVTWESVAPYQGPSRDPDQKGKRNTFQAVLASSDSSSYAIFLYPEDGLQFHTTFSKKENNQVPAVVAFSQGSVGFLWKSNGAYNIFANDRESVENLAKSSNSGQQGVWVFEIGSPATTNGVVPADVILGTEDGAEYDDEDEDYDLATTRLGLEDVGTTPFSYKALRRGGADTYSVPSVLSPRRAATERPLGPPTERTRSFQLAVETFHQQHPQVIDVDEVEETGVVFSYNTDSRQTCANNRHQCSVHAECRDYATGFCCSCVAGYTGNGRQCVAEGSPQRVNGKVKGRIFVGSSQVPIVFENTDLHSYVVMNHGRSYTAISTIPETVGYSLLPLAPVGGIIGWMFAVEQDGFKNGFSITGGEFTRQAEVTFVGHPGNLVIKQRFSGIDEHGHLTIDTELEGRVPQIPFGSSVHIEPYTELYHYSTSVITSSSTREYTVTEPERDGASPSRIYTYQWRQTITFQECVHDDSRPALPSTQQLSVDSVFVLYNQEEKILRYALSNSIGPVREGSPDALQNPCYIGTHGCDTNAACRPGPRTQFTCECSIGFRGDGRTCYDIDECSEQPSVCGSHTICNNHPGTFRCECVEGYQFSDEGTCVAVVDQRPINYCETGLHNCDIPQRAQCIYTGGSSYTCSCLPGFSGDGQACQDVDECQPSRCHPDAFCYNTPGSFTCQCKPGYQGDGFRCVPGEVEKTRCQHEREHILGAAGATDPQRPIPPGLFVPECDAHGHYAPTQCHGSTGYCWCVDRDGREVEGTRTRPGMTPPCLSTVAPPIHQGPAVPTAVIPLPPGTHLLFAQTGKIERLPLEGNTMRKTEAKAFLHVPAKVIIGLAFDCVDKMVYWTDITEPSIGRASLHGGEPTTIIRQDLGSPEGIAVDHLGRNIFWTDSNLDRIEVAKLDGTQRRVLFETDLVNPRGIVTDSVRGNLYWTDWNRDNPKIETSYMDGTNRRILVQDDLGLPNGLTFDAFSSQLCWVDAGTNRAECLNPSQPSRRKALEGLQYPFAVTSYGKNLYFTDWKMNSVVALDLAISKETDAFQPHKQTRLYGITTALSQCPQGHNYCSVNNGGCTHLCLATPGSRTCRCPDNTLGVDCIEQK
Which hESC aggregation (hESC lines H1 and H9; [1]) does the source give for B1 here?
The hESC aggregation was “minimal aggregation”.

B2: Wnt3a: morphogen Wnt3a, 10 ng/ml (R&D systems) (protein, UniProt P56704 19-352, looked up)
Protein Wnt-3a: SYPIWWSLAVGPQYSSLGSQPILCASIPGLVPKQLRFCRNYVEIMPSVAEGIKIGIQECQHQFRGRRWNCTTVHDSLAIFGPVLDKATRESAFVHAIASAGVAFAVTRSCAEGTAAICGCSSRHQGSPGKGWKWGGCSEDIEFGGMVSREFADARENRPDARSAMNRHNNEAGRQAIASHMHLKCKCHGLSGSCEVKTCWWSQPDFRAIGDFLKDKYDSASEMVVEKHRESRGWVETLRPRYTYFKVPTERDLVYYEASPNFCEPNPETGSFGTRDRTCNVSSHGIDGCDLLCCGRGHNARAERRREKCRCVFHWCCYVSCQECTRVYDVHTCK
Which results are given for B2?
germ layer derivatives suppressed in LN-EBs (LN-EBs from hESC; serum-free medium, growth factors 10 ng/ml): formation of meso-endodermal derivatives labeled with CD34 and alpha-fetoprotein respectively was almost completely abolished; germ layer derivatives formed in LN-EBs (LN-EBs from hESC; supplement in medium (growth factors 10 ng/ml serum-free, or 10% FCS), day 15): neuro-ectodermal epithelial cells that expressed nestin and formed solid neural tube-like structures were efficiently induced
